Read-outs that look alike come from different tables or passages of the source.
Legend:
Type in all cases: biochemical
human Yes1 enzyme = target: T1, human Yes1 enzyme (Homo sapiens, UniProt P07947); test: Yes1 enzyme inhibitory activity (time-resolved fluorometry, biotinylated peptide phosphorylation); settings: read-out: YES_IC50
T1 construct: made in house
Outline: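 Inhibition was expressed against a compound-free control to give IC50, using TR-FRET read-out (Eu-cryptate anti-pTyr antibody, streptavidin-XL665).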

human Src enzyme = target: T2, human Src enzyme (Homo sapiens, UniProt P12931); test: Src enzyme inhibitory activity (time-resolved fluorometry, biotinylated peptide phosphorylation); settings: read-out: SRC_IC50
T2 construct: purchased Carna Biosciences, Inc. 08-173
T2 sequence (P12931 whole entry): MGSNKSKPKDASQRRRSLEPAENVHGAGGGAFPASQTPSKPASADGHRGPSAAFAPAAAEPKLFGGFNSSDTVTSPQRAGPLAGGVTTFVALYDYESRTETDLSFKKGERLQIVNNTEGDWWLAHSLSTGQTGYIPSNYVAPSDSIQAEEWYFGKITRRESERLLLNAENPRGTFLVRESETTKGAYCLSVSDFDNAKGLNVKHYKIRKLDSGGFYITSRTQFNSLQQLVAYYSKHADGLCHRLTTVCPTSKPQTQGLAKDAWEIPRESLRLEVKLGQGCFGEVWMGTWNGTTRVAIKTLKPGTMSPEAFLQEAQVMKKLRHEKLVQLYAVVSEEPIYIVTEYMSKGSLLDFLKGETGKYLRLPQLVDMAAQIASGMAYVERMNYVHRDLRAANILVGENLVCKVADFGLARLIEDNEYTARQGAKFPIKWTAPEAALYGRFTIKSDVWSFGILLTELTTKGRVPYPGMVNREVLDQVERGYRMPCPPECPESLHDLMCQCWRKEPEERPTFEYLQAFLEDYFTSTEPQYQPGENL
Outline: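 Compounds were tested for blocking tyrosine phosphorylation of a biotinylated peptide substrate by recombinant human Src. Phosphorylated product was quantified by time-resolved fluorometry using europium cryptate and XL665 conjugates, and IC50 was calculated against the compound-free control.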

human Lck enzyme = target: T3, human Lck enzyme (Homo sapiens, UniProt P06239); test: Lck enzyme inhibitory activity (time-resolved fluorometry, biotinylated peptide phosphorylation); settings: read-out: LCK_IC50
T3 construct: purchased Carna Biosciences, Inc. 08-170
T3 sequence (P06239 whole entry): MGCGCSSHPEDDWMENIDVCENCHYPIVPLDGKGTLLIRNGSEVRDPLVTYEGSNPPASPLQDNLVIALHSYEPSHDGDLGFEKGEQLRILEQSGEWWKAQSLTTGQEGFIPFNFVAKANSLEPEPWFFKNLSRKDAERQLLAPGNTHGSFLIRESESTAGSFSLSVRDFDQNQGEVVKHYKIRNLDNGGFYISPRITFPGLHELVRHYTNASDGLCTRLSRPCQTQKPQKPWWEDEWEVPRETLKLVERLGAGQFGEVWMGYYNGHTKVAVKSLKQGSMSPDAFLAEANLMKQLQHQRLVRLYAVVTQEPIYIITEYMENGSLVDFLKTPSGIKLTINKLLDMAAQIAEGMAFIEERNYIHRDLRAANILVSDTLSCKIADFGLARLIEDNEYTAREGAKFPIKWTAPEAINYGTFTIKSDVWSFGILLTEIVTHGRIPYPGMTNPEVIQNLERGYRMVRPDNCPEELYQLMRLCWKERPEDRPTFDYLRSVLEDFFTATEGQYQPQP
Outline: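 Readout pairs a europium cryptate-labelled anti-phosphotyrosine antibody with XL665-streptavidin, measured by time-resolved fluorescence. IC50 derived from percent inhibition against untreated controls.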

[1] = biotinylated peptide phosphorylation

T1 sequence (P07947 whole entry): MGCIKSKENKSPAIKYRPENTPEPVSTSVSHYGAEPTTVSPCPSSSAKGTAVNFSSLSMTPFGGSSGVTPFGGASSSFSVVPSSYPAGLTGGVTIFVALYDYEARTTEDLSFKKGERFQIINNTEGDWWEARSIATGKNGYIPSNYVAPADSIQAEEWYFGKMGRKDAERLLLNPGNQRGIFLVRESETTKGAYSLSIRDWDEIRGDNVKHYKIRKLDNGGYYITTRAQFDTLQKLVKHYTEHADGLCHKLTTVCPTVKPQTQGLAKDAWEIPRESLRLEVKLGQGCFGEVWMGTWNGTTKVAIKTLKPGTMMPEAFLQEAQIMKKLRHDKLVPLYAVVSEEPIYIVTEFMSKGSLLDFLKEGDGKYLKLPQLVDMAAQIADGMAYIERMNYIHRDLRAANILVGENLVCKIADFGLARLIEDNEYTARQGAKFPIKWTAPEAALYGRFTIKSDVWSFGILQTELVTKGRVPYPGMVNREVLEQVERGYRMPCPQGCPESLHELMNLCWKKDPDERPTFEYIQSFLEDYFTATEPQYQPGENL

Structure (SMILES)	IC50 (human Yes1 enzyme; [1]) [nM]	IC50 (human Src enzyme; [1]) [nM]	IC50 (human Lck enzyme; [1]) [nM]	IC50 (human Yes1 enzyme) [nM]	IC50 (human Src enzyme) [nM]	IC50 (human Lck enzyme) [nM]
Cc1cc(Oc2ccccc2F)ncc1-n1ncc(C(=O)c2cc3cc(OC(F)F)c(N4CCN(S(C)(=O)=O)CC4)cc3[nH]2)c1N [Example 4-23-004, [5-amino-1-[6-(2-fluorophenoxy)-4-methylpyridin-3-yl]pyrazol-4-yl]-[5-(difluoromethoxy)-6-(4-methylsulfonylpiperazin-1-yl)-1H-indol-2-yl]methanone]	5.5	48	18			
Cc1cc(Oc2ccccc2F)cc(F)c1-n1ncc(C(=O)c2cc3cc(OCC(F)F)c(NS(=O)(=O)C4CC4)cc3[nH]2)c1N [Example 4-24-024, N-[2-[5-amino-1-[2-fluoro-4-(2-fluorophenoxy)-6-methylphenyl]pyrazole-4-carbonyl]-5-(2,2-difluoroethoxy)-1H-indol-6-yl]cyclopropanesulfonamide]	3.3	130	46			
Cc1cc(Oc2c(F)cccc2F)ncc1-n1ncc(C(=O)c2cc3cc(SC(F)F)c(N4C(=O)NC(C)(C)C4=O)cc3[nH]2)c1N [Example 5-1-324, 3-[2-[5-amino-1-[6-(2,6-difluorophenoxy)-4-methylpyridin-3-yl]pyrazole-4-carbonyl]-5-(difluoromethylsulfanyl)-1H-indol-6-yl]-6,5-dimethylimidazolidine-2,4-dione]				10	230	19
Cc1cc(Oc2ccccc2Cl)cc(F)c1-n1ncc(C(=O)c2cc3cc(F)c(NS(C)(=O)=O)cc3[nH]2)c1N [Example 4-7-009, N-[2-[5-amino-1-[4-(2-chlorophenoxy)-2-fluoro-6-methylphenyl]pyrazole-4-carbonyl]-5-fluoro-1H-indol-6-yl]methanesulfonamide]	3.7	150	34			
Cc1cc(-n2ncc(C(=O)c3cc4cc(OC5CCN(C6CCC6)CC5)c(Br)cc4[nH]3)c2N)ccc1Oc1ccccc1F [Example 5-1-218, [5-amino-1-[4-(2-fluorophenoxy)-3-methylphenyl]pyrazol-4-yl]-[6-bromo-5-(1-cyclobutylpiperidin-4-yl)oxy-1H-indol-2-yl] methanone]				0.64	220	39
Cc1cc(Oc2c(F)cccc2F)ncc1-n1ncc(C(=O)c2cc3cc(OCC(F)F)c(C4CCN(C(=O)CN)CC4)cc3[nH]2)c1N [Example 4-18-001, 2-amino-1-{4-{2-{5-amino-1-[6-(2,6-difluorophenoxy)-4-methylpyridin-3-yl]pyrazole-4-carbonyl}-5-(2,2-difluoroethoxy)-1H-indol-6-yl}piperidin-1-yl}ethanone]	3.2	24	8.2			
Cc1cc(-n2ncc(C(=O)c3cc4cc(OC5CCN(C6CCC6)CC5)c(F)cc4[nH]3)c2N)ccc1Oc1ccccc1F [Example 5-1-234, [5-amino-1-[4-(2-fluorophenoxy)-3-methylphenyl]pyrazol-4-yl]-[5-(1-cyclobutylpiperidin-4-yl)oxy-6-fluoro-1H-indol-2-yl]methanone]				3.2	490	73
Cc1cc(Oc2ccccc2F)ccc1-n1ncc(C(=O)c2cc3cc(F)c(N4C(=O)NC5(CCCCC5)C4=O)cc3[nH]2)c1N [Example 5-1-450, 3-[2-[5-amino-1-[4-(2-fluorophenoxy)-2-methylphenyl]pyrazole-4-carbonyl]-5-fluoro-1H-indol-6-yl]-1,3-diazaspiro[4.5]decane-2,4-dione]	3	150	22			
Cc1cc(Oc2ccccc2F)ccc1-n1ncc(C(=O)c2cc3cc(OC(F)F)c(NS(=O)(=O)CCCF)cc3[nH]2)c1N [Example 4-24-003, N-[2-[5-amino-1-[4-(2-fluorophenoxy)-2-methylphenyl]pyrazole-4-carbonyl]-5-(difluoromethoxy)-1H-indol-6-yl]-3-fluoropropane-1-sulfonamide]	2.7	55	25			

Reference: US10479780B2, “Aminopyrazole derivatives” (Chugai Seiyaku Kabushiki Kaisha, priority 2015, dated 2019)
